pIC50: −log10 of the molar value.
Molecular target: T1, P2Y12 receptor (Homo sapiens, UniProt Q9H244)
T1 construct: expressed in transfected cells; host or cells: CHO cells (membrane preparation)
Test: Functional inhibition of 2-Me-S-ADP induced P2Y12 signalling (35S-GTPγS, membranes from P2Y12 transfected CHO-cells)
Type: biochemical
Settings: EC80 concentration of agonist 2-methyl-thio-adenosine diphosphate, 30° C., 45 min
Experimental: Functional inhibition of the P2Y12 receptor can be measured by in vitro assays using cell membranes from P2Y12 transfected CHO-cells, the methodology is indicated below.
Functional inhibition of 2-Me-S-ADP induced P2Y12 signalling: 5 μg of membranes were diluted in 200 μl of 200 mM NaCl, 1 mM MgCl2, 50 mM HEPES (pH 7.4), 0.01% BSA, 30 μg/ml saponin and 10 μM GDP. To this was added an EC80 concentration of agonist (2-methyl-thio-adenosine diphosphate), the required concentration of test compound and 0.1 μCi ^35S-GTPγS. The reaction was allowed to proceed at 30° C. for 45 min. Samples were then transferred on to GF/B filters using a cell harvester and washed with wash buffer (50 mM Tris (pH 7.4), 5 mM MgCl2, 50 mM NaCl). Filters were then covered with scintilant and counted for the amount of ^35S-GTPγS retained by the filter. Maximum activity was that determined in the presence of the agonist and minimum activity in the absence of the agonist following subtraction of the value determined for non-specific activity. The effect of compounds at various concentrations was plotted according to the equation […]
y=A+((B−A)/(1+((C/x)̂D)))
A is the bottom plateau of the curve i.e. the final minimum y value
B is the top of the plateau of the curve i.e. the final maximum y value
C is the x value at the middle of the curve. This represents the log EC50 value when A+B=100 […]

T1 sequence (Q9H244 whole entry): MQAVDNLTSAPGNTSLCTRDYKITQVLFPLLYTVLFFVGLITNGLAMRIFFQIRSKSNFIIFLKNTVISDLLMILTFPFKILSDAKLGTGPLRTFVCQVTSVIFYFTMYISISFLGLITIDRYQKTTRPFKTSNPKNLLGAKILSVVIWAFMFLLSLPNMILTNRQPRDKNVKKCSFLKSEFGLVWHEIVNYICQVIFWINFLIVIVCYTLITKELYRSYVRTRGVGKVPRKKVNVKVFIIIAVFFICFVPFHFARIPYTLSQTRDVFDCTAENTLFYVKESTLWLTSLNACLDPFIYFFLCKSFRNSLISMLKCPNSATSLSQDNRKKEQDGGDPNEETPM

Q: CCOC(=O)c1cc(C#N)c(N2CCC(S(=O)(=O)NS(=O)(=O)Cc3ccccc3)CC2)nc1C [Example 2, ethyl 6-(4-{[(benzylsulfonyl)amino]sulfonyl}piperidin-1-yl)-5-cyano-2-methylnicotinate] was tested. Which pIC50 did it give?
A: 6.19

Q: How did the pIC50 turn out when CCOC(=O)c1cc(C#N)c(N2CCC(S(=O)(=O)NC(=O)Cc3ccc(F)cc3)CC2)nc1C [Example 4, Ethyl 5-cyano-6-[4-({[(4-fluorophenyl)acetyl]amino}sulfonyl)piperidin-1-yl]-2-methylnicotinate] was run?
A: 6.52
